pEC50: −log10 of the molar value. Like-named read-outs stand apart in the source and are kept apart here. Square brackets hold non-standard residues; d marks the D form. Peptide text beside a SMILES is read from it. N(1-naphthylmethyl)Gly = O=C(O)CNCc1cccc2ccccc12; 1Nal = N[C@@H](Cc1cccc2ccccc12)C(=O)O; 2Nal = N[C@@H](Cc1ccc2ccccc2c1)C(=O)O; d1Nal = N[C@H](Cc1cccc2ccccc12)C(=O)O; d2Nal = N[C@H](Cc1ccc2ccccc2c1)C(=O)O; Nle = CCCC[C@H](N)C(=O)O; Nphe = O=C(O)CNCc1ccccc1; NBuGly = CCCCNCC(=O)O
Tests used:
MSSA (ATCC 29213) = format: cell-based, Staphylococcus aureus
Experimental: (§1) Activity of B1 was tested on 50P. aeruginosa isolates and 57S. pseudintermedius isolates (including 7 MRSP) that had been isolated in the diagnostic laboratory Sund Vet Diagnostik (University of Copenhagen) from various infections in dogs between 2009 and 2011. Representative MRSP (C22963), MSSA, and P. aeruginosa (26314) were used for testing the first set of B1 analogues.
(§2) MIC determination was performed by broth microdilution according to the Clinical and Laboratory Standard Institute (CLSI, M31-A3, 2008)[62]. In brief, each bacterial strain was diluted to concentration of 5 × 10^5 CFU/mL in Mueller Hinton broth II (MHB II) media (Oxoid) and added to a two-fold serial dilution of peptides and peptide-peptoid hybrids concentrations ranging from 1 to 64 µg/ml in 96-well plates (Nunc Internationals, Rochester, NY). The MICs were determined as a lowest concentration showing no visible growth after incubation for 18 hours at 37 °C. Experiments were performed in triplicates on two different days.

P. aeruginosa (26314) = format: cell-based, Pseudomonas aeruginosa
Experimental: Activity of B1 was tested on […]. aeruginosa isolates and […]. pseudintermedius isolates (including 7 MRSP) that had been isolated in the diagnostic laboratory Sund Vet Diagnostik (University of Copenhagen) from various infections in dogs between 2009 and 2011. Representative […], and P. aeruginosa (26314) were used for testing the first set of B1 analogues. For antibacterial spectrum the following strains were used: Corynebacterium auriscanis, 31551, (54 C6, dog, ear, 2013); Enterococcus faecalis, 27404, (17 C7, dog, wound, 2011); Enterococcus faecium, 30951, (24 C1, dog, ear, 2013); Streptococcus canis, 26740-1, (14 H1, dog, ear, 2010); Staphylococcus aureus, 27266, (16 G9, dog, skin, 2010); Staphylococcus aureus, 27266, (16 G9, dog, skin, 2010); Staphylococcus pseudintermedius 22963, (3 B9, dog, 2007). Acinetobacter baumannii, 27065, (16 D1, dog, wound, 2010); E. coli, 30235, 23 A6, dog, wound, 2012; Klebsiella pneumoniae, 26233, (11 H5, dog, wound, 2010); Pasteurella canis, 31096, (24 C8, dog, skin, 2013); Proteus mirabilis, 25178, (9 A4, dog, ear, 2009); Pseudomonas aeruginosa 26314, 12 C5, dog, urine, 2010). MIC determination was performed by broth microdilution according to the Clinical and Laboratory Standard Institute (CLSI, […]-A3, 2008)[62]. In brief, each bacterial strain was diluted to concentration of 5 × 10^5 CFU/mL in Mueller Hinton broth II (MHB II) media (Oxoid) and added to a two-fold serial dilution of peptides and peptide-peptoid hybrids concentrations ranging from 1 to 64 μg/ml in 96-well plates (Nunc Internationals, Rochester, NY). The MICs were determined as a lowest concentration showing no visible growth after incubation for 18 hours at 37 °C. Experiments were performed in triplicates on two different days.

[1] = format: cell-based, human; conditions: human
Experimental: (§3) Briefly, two-fold serial dilutions (2.35 to 150 μM) of compounds in phosphate buffer saline (PBS) were mixed with equal volume of 0.5% v/v suspension of fresh human red blood cells (RBC) in the same buffer. After 1 h incubation at 37 °C, plates were centrifuged and aliquots of the supernatants were transferred to clear 96-well plates. Absorbance at 414 nm was measured and normalized using a negative (PBS, 0%) and a positive (melittin, 100%) control. The EC10 and EC50 are concentrations at which 10% and 50% of RBC were lysed, respectively, as interpolated graphically by the y-axis intersection of the plotted data.

MRSP C22963 = format: cell-based, Staphylococcus pseudintermedius
Experimental: as §1, §2

human red blood cells = format: cell-based; conditions: for pEC50: red cells of human, 1 h
Experimental: as §3

Molecule	Minimum Inhibitory Concentration MSSA (ATCC 29213) (MSSA (ATCC 29213); ATCC 29213, 18 h) [µg/mL]	Minimum Inhibitory Concentration P. aeruginosa (26314) (P. aeruginosa (26314); 26314, 18 h) [µg/mL]	hemolysis at 1 h, 150 µM [1] [%]	Minimum Inhibitory Concentration MRSP C22963 (MRSP C22963; 18 h) [µg/mL]	Haemolysis EC10 (human red blood cells) [µM]	pEC50 (human red blood cells)	Minimum Inhibitory Concentration MSSA (ATCC 29213) (MSSA (ATCC 29213); Table 1) [µg/mL]	Minimum Inhibitory Concentration P. aeruginosa (26314) (P. aeruginosa (26314); Table 1) [µg/mL]	Haemolysis %H 150(µM) (human red blood cells; 150 µM) [%]	Minimum Inhibitory Concentration MRSP C22963 (MRSP C22963; Table 1) [µg/mL]
CC(C)C[C@@H](NC(=O)[C@@H](Cc1cccc2ccccc12)NC(=O)[C@@H](Cc1ccccc1)NC(=O)[C@H](N)Cc1cccc2ccccc12)C(=O)N[C@@H](CCCCN)C(=O)N[C@@H](CCCCN)C(=O)N[C@@H](CCCCN)C(N)=O [Compound 21, (1-Nal)ala-phe-(1-Nal)ala-leu-Lys-Lys-Lys] (H-[d1Nal][dF][d1Nal][dL]KKK-NH2; N-terminus assumed)	32	32	< 8	16						
CCCC[C@H](NC(=O)[C@H](CCCCN)NC(=O)[C@H](CCCCN)NC(=O)[C@@H](N)CCCCN)C(=O)N[C@@H](Cc1ccc2ccccc2c1)C(=O)N[C@@H](Cc1ccc(O)cc1)C(=O)N[C@@H](Cc1ccc2ccccc2c1)C(N)=O [Compound 27, Lys-Lys-Lys-Nle-(2-Nal)Ala-Tyr-(2-Nal)Ala] (H-KKK[Nle][2Nal]Y[2Nal]-NH2; N-terminus assumed)		64	54	2 to 4	3	4.25				
CC(C)C[C@H](NC(=O)[C@H](CCCCN)NC(=O)[C@H](Cc1cccc2ccccc12)NC(=O)[C@H](Cc1ccccc1)NC(=O)[C@@H](N)Cc1cccc2ccccc12)C(=O)N[C@@H](CCCCN)C(=O)N[C@@H](CCCCN)C(N)=O [Compound 10, (1-Nal)Ala-Phe-(1-Nal)Ala-Lys-Leu-Lys-Lys] (H-[1Nal]F[1Nal]KLKK-NH2; N-terminus assumed)	16 to 32	64	< 8	8 to 16						
Lys-Lys-Lys-Leu-(2-Nal)Ala-Tyr-(2-Nal)Ala [Compound 22]					117		>64	>64	14	16
CCCCN(CC(=O)N[C@@H](CCCCN)C(=O)N(CC(=O)N(CC(=O)N(CC(N)=O)Cc1cccc2ccccc12)Cc1ccccc1)Cc1cccc2ccccc12)C(=O)[C@H](CCCCN)NC(=O)[C@@H](N)CCCCN [Compound 2, Lys-Lys-(NBu)Gly-Lys-(N1-Nal)Gly-(NPhe)Gly-(N1-Nal)Gly] (H-KK[NBuGly]K[N(1-naphthylmethyl)Gly][Nphe][N(1-naphthylmethyl)Gly]-NH2; N-terminus assumed)	8 to 16	32	< 8	4						
CCCCN(CC(=O)N(CC(=O)N(CC(=O)N(CC(N)=O)Cc1cccc2ccccc12)Cc1ccccc1)Cc1cccc2ccccc12)C(=O)[C@H](CCCCN)NC(=O)[C@H](CCCCN)NC(=O)[C@@H](N)CCCCN [Compound 3, Lys-Lys-Lys-(NBu)Gly-(N1-Nal)Gly-(NPhe)Gly-(N1-Nal)Gly] (H-KKK[NBuGly][N(1-naphthylmethyl)Gly][Nphe][N(1-naphthylmethyl)Gly]-NH2; N-terminus assumed)	16	32	< 8	4						
CC(C)C[C@@H](NC(=O)[C@H](CCCCN)NC(=O)[C@H](CCCCN)NC(=O)[C@@H](N)CCCCN)C(=O)N[C@H](Cc1cccc2ccccc12)C(=O)N[C@H](Cc1ccc(O)cc1)C(=O)N[C@H](Cc1cccc2ccccc12)C(N)=O [Compound 25, Lys-Lys-Lys-leu-(1-Nal)ala-tyr-(1-Nal)ala] (H-KKK[dL][d1Nal][dY][d1Nal]-NH2; N-terminus assumed)			53	2 to 4	38	3.86		8		
CCCCN(CC(=O)N[C@@H](CCCCN)C(=O)N[C@@H](CCCCN)C(N)=O)C(=O)[C@H](CCCCN)NC(=O)CN(Cc1cccc2ccccc12)C(=O)CN(Cc1ccccc1)C(=O)CNCc1cccc2ccccc12 [Compound 5, (N1-Nal)Gly-(NPhe)Gly-(N1-Nal)Gly-Lys-(NBu)Gly-Lys-Lys] (H-[N(1-naphthylmethyl)Gly][Nphe][N(1-naphthylmethyl)Gly]K[NBuGly]KK-NH2; N-terminus assumed)	16	32	< 8	8						
CC(C)C[C@@H](NC(=O)[C@H](CCCCN)NC(=O)[C@@H](Cc1ccc2ccccc2c1)NC(=O)[C@@H](Cc1ccccc1)NC(=O)[C@H](N)Cc1ccc2ccccc2c1)C(=O)N[C@@H](CCCCN)C(=O)N[C@@H](CCCCN)C(N)=O [Compound 18, (2-Nal)ala-phe-(2-Nal)ala-Lys-leu-Lys-Lys] (H-[d2Nal][dF][d2Nal]K[dL]KK-NH2; N-terminus assumed)	32 to 64	>64	< 8	16						
CC(C)C[C@@H](NC(=O)[C@@H](Cc1ccc2ccccc2c1)NC(=O)[C@@H](Cc1ccccc1)NC(=O)[C@H](N)Cc1ccc2ccccc2c1)C(=O)N[C@@H](CCCCN)C(=O)N[C@@H](CCCCN)C(=O)N[C@@H](CCCCN)C(N)=O [Compound 19, (2-Nal)ala-phe-(2-Nal)ala-leu-Lys-Lys-Lys] (H-[d2Nal][dF][d2Nal][dL]KKK-NH2; N-terminus assumed)	32	>64	< 8	16						
CC(C)C[C@@H](NC(=O)[C@H](CCCCN)NC(=O)[C@H](CCCCN)NC(=O)[C@@H](N)CCCCN)C(=O)N[C@H](Cc1ccc2ccccc2c1)C(=O)N[C@H](Cc1ccc(O)cc1)C(=O)N[C@H](Cc1ccc2ccccc2c1)C(N)=O [Compound 28, Lys-Lys-Lys-leu-(2-Nal)ala-tyr-(2-Nal)ala] (H-KKK[dL][d2Nal][dY][d2Nal]-NH2; N-terminus assumed)		32	64	2 to 4	6	4.30				
CC(C)C[C@@H](NC(=O)[C@H](CCCCN)NC(=O)[C@@H](Cc1cccc2ccccc12)NC(=O)[C@@H](Cc1ccccc1)NC(=O)[C@H](N)Cc1cccc2ccccc12)C(=O)N[C@@H](CCCCN)C(=O)N[C@@H](CCCCN)C(N)=O [Compound 20, (1-Nal)ala-phe-(1-Nal)ala-Lys-leu-Lys-Lys] (H-[d1Nal][dF][d1Nal]K[dL]KK-NH2; N-terminus assumed)	32 to 64	>64	< 8	16						
CC(C)C[C@H](NC(=O)[C@H](CCCCN)NC(=O)[C@H](Cc1ccc2ccccc2c1)NC(=O)[C@H](Cc1ccccc1)NC(=O)[C@@H](N)Cc1ccc2ccccc2c1)C(=O)N[C@@H](CCCCN)C(=O)N[C@@H](CCCCN)C(N)=O [Compound 11, (2-Nal)Ala-Phe -(2-Nal)Ala-Lys-Leu-Lys-Lys] (H-[2Nal]F[2Nal]KLKK-NH2; N-terminus assumed)	16	64	< 8	4 to 8						

From article PMC6403271, “Characterization, mechanism of action and optimization of activity of a novel peptide-peptoid hybrid against bacterial pathogens involved in canine skin infections” (Scientific Reports, 2019)
